The source of these data is patent US20230061736A1, “GPR119 AGONISTS” (Kallyope, Inc., priority 2019, published 2023).

In one series the target is T1, human GPR119 (hGPR119) (Homo sapiens, UniProt Q8TDV5).
T1 construct: expressed in transfected cells
T1 sequence (Q8TDV5 1-335): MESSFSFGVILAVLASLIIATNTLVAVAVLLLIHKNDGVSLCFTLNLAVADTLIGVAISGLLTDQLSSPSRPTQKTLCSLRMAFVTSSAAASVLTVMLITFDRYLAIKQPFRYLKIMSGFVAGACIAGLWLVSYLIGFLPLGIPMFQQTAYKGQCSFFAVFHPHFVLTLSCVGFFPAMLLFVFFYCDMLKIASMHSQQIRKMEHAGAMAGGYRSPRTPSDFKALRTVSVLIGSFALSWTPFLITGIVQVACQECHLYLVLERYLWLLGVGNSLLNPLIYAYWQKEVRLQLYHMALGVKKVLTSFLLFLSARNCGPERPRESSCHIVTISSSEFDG
Nature of the series: cAMP accumulation assay (cAMP Gs dynamic HTRF kit). It is filed as cell-based. Conditions: CHO-K1 cells stably expressing hGPR119, 4-parameter fit; for Emax: 1 h, % activity normalized to Max/Min controls; for EC50: cAMP accumulation. Put shortly: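 Read-out is HTRF 665/620 nm ratio after 1 h detection at ambient temperature, converted to % activity against positive and negative controls, EC50 and Max activity by 4-parameter fit. Compounds were titrated onto ~10,000 thawed hGPR119-CHO-K1 cells/well for 60 min at 37° C/5% CO2.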
A general note: Cyclic AMP is a second messenger, typically raised through Gs and lowered through Gi signalling.

Series [1] in a line: Oral bioavailability in mice. Conditions: mouse, in vivo; C57BL/6 mice; IV 1 mg/kg, PO 30 mg/kg. The procedure:
Compounds were dosed IV at 1 mg/kg as a formulation of 0.5 mg/mL in 5% DMSO+30% PEG400+65% water and PO at 30 mg/kg as a formulation of 6 mg/mL in 0.25% methylcellulose+5% Tween 80+0.02% SDS in water (Compound 42) or 0.5% methylcellulose+0.5% Tween 80 in water (Compound 83).

The nature of series [2]: In vivo plasma levels in mice after oral gavage. More on the design: species or system C57BL/6J mice. The note with it: mouse, 30 mpk oral gavage, 7 h post-dose; for concentration at 7 h: male, C57BL/6J, plasma, 30 mg/kg, read-out: Exposure Total (plasma); for Exposure unbound (plasma): total exposure x free fraction from plasma protein binding. On the procedure: Male C57BL/6J mice 10-12 weeks old were dosed with test article or vehicle [0.25% (w/v) methylcellulose, 5% (v/v) Polysorbate 80, and 0.02% (w/v) sodium lauryl sulfate in Hanks' Balanced Salt solution (all final concentrations)] by oral gavage at a volume of 10 mL/kg. Animals were euthanized with carbon dioxide 7-8 h post dose. Blood was collected for measurement of plasma concentrations of test article. Unbound exposure was calculated by multiplying the measured total exposure by the free fraction as assessed from plasma protein binding.
Plasma protein binding to isotonic phosphate buffer (PBS) containing 10% C57 BL/6 mouse plasma was determined using equilibrium dialysis of plasma spiked with test article (2 μM) against a dialysis buffer (100 mM sodium phosphate and 150 mM NaCl). At the end of the dialysis (4 hr), aliquots of the plasma and buffer were processed by protein precipitation for LC-MS/MS analysis to quantitate the test article.

The nature of series [3]: In vivo plasma levels in mice after oral gavage. More on the design: species or system C57BL/6J mice. Conditions: male, C57BL/6J, plasma, 30 mg/kg; mouse, 30 mpk oral gavage, 2 h post-dose; read-out: Exposure Total (plasma).

Some results are limits rather than exact numbers.

A word on the Emax: it is the maximal effect, on the per cent scale that the assay sets. The EC50 is the concentration needed to bring the measured effect to its halfway point. High values mean lower potency in that assay, low ones higher potency in that assay. Usually bioavailability stands for the share of a dose that reaches the circulation, judged against a reference dose that is usually intravenous. Higher therefore signals good availability. For the molecule `COCc1cnc(N2CCC(CCCOc3ccc(CC(=O)N4CC(CNC[C@H](O)[C@@H](O)[C@H](O)[C@H](O)CO)C4)c(F)c3)CC2)nc1` [Example 83, 2-[2-fluoro-4-[3-[1-[5-(methoxymethyl)pyrimidin-2-yl]-4-piperidyl]propoxy]phenyl]-1-[3-[[[(2S,3R,4R,5R)-2,3,4,5,6-pentahydroxyhexyl]amino]methyl]azetidin-1-yl]ethanone], at human GPR119 (hGPR119), the Emax lay in the range of 100 to 130% and the EC50 was 100 to 1000 nM. In series [1], this molecule came in with a bioavailability of 1.4%.

Turning to `O=C(NC(CO)(CO)CO)C1CN(C(=O)Cc2ccc(OCCCC3CCN(c4ncc(Cl)cn4)CC3)cc2F)C1` [Example 29, 1-[2-[4-[3-[1-(5-chloropyrimidin-2-yl)-4-piperidyl]propoxy]-2-fluoro-phenyl]acetyl]-N-[2-hydroxy-1,1-bis(hydroxymethyl)ethyl]azetidine-3-carboxamide], in series [2], the concentration at 7 h is 354 nM and the “Exposure unbound (plasma)” value is reported as 0.7 nM. At human GPR119 (hGPR119), the Emax is no less than 130% and the EC50 was no more than 100 nM.

On to `O=C(Cc1ccc(OCCCC2CCN(c3ncc(Cl)cn3)CC2)cc1F)N1CC(CNC(CO)(CO)CO)C1` [Example 44, 2-[4-[3-[1-(5-chloropyrimidin-2-yl)-4-piperidyl]propoxy]-2-fluoro-phenyl]-1-[3-[[[2-hydroxy-1,1-bis(hydroxymethyl)ethyl]amino]methyl]azetidin-1-yl]ethanone], for which, in series [2], the concentration at 7 h came to 668 nM and the “Exposure unbound (plasma)” value is reported as 0.7 nM. At human GPR119 (hGPR119), this molecule displayed a maximal response (Emax) of no less than 130% and an EC50 of no more than 100 nM.

For `CC(C)c1noc(N2CCC(COc3ccc(-c4ccc(S(C)(=O)=O)cc4)nc3)CC2)n1` [GSK1292263, 3-isopropyl-5-(4-(((6-(4-(methylsulfonyl)phenyl)pyridin-3-yl)oxy)methyl)piperidin-1-yl)-l,2,4-oxadiazole, reference compound], the concentration at 2 h in series [3] is 7840 nM.

`O=C(NC[C@H](O)[C@@H](O)[C@H](O)[C@H](O)CO)C1CN(C(=O)Cc2ccc(OCCCC3CCN(c4ncc(Cl)cn4)CC3)cc2F)C1` (racemic) [Example 37, 1-[2-[4-[3-[1-(5-chloropyrimidin-2-yl)-4-piperidyl]propoxy]-2-fluoro-phenyl]acetyl]-N-[rac-(2S,3R,4R,5R)-2,3,4,5,6-pentahydroxyhexyl]azetidine-3-carboxamide]: in series [2], the concentration at 7 h came to 551 nM and the “Exposure unbound (plasma)” value stood at 1.1 nM. At human GPR119 (hGPR119), the maximum response (Emax) was 100 to 130% and the EC50 is 100 to 1000 nM.

For the molecule `O=C(Cc1ccc(OCC[C@@H]2C[C@@H]2C2CCN(c3ncc(Cl)cn3)CC2)cc1F)N1CC(CNC[C@H](O)[C@@H](O)[C@H](O)[C@H](O)CO)C1` [Example 86, 2-[4-[2-[(1S,2R)-2-[1-(5-chloropyrimidin-2-yl)-4-piperidyl]cyclopropyl]ethoxy]-2-fluoro-phenyl]-1-[3-[[[(2S,3R,4R,5R)-2,3,4,5,6-pentahydroxyhexyl]amino]methyl]azetidin-1-yl]ethanone], in series [2], the concentration at 7 h was determined as 67 nM and the “Exposure unbound (plasma)” value came out at 0.1 nM. On human GPR119 (hGPR119), the Emax was in the range of 100 to 130% and the EC50 fell in the range of 100 to 1000 nM.

Turning to `COc1c(Nc2ccc(S(C)(=O)=O)nc2C)ncnc1OC1CCN(C(=O)OC(C)C)CC1` [APD597, isopropyl 4-((5-methoxy-6-((2-methyl-6-(methylsulfonyl)pyridin-3-yl)amino)pyrimidin-4-yl)oxy)piperidine-1-carboxylate, reference compound], in series [3], the concentration at 2 h amounted to 16200 nM.

As for `CCCc1cnc(N2CCC(CCCOc3ccc(CC(=O)N4CC(CNCCNC(=O)NC(CO)(CO)CO)C4)c(F)c3)CC2)nc1` [Example 73, 1-(1,3-dihydroxy-2-(hydroxymethyl)propan-2-yl)-3-(2-(((1-(2-(2-fluoro-4-(3-(1-(5-propylpyrimidin-2-yl)piperidin-4-yl)propoxy)phenyl)acetyl)azetidin-3-yl)methyl)amino)ethyl)urea], on human GPR119 (hGPR119), the Emax fell in the range of 100 to 130% and the EC50 lay within 100 to 1000 nM.

Consider `O=C(Cc1ccc(OCCCC2CCN(c3ncc(Cl)cn3)CC2)cc1F)N1CC[C@@H](CNC(CO)(CO)CO)C1` [Example 148, 2-[4-[3-[1-(5-chloropyrimidin-2-yl)-4-piperidyl]propoxy]-2-fluoro-phenyl]-1-[(3S)-3-[[[2-hydroxy-1,1-bis(hydroxymethyl)ethyl]amino]methyl]pyrrolidin-1-yl]ethanone], for which, on human GPR119 (hGPR119), the Emax was no less than 130% and the half-maximal effective concentration (EC50) was no more than 100 nM.

For `O=C(Cc1ccc(OCCCCC2CC3(CCN(c4ncc(Cl)cn4)CC3)C2)cc1F)N1CC(CNC[C@H](O)[C@@H](O)[C@H](O)[C@H](O)CO)C1` [Example 106, 2-[4-[4-[7-(5-chloropyrimidin-2-yl)-7-azaspiro[3.5]nonan-2-yl]butoxy]-2-fluoro-phenyl]-1-[3-[[[(2S,3R,4R,5R)-2,3,4,5,6-pentahydroxyhexyl]amino]methyl]azetidin-1-yl]ethanone], at human GPR119 (hGPR119), the maximal response (Emax) lay in the range of 100 to 130% and the EC50 lay within 100 to 1000 nM.

At human GPR119 (hGPR119), `O=C(NCCO[C@H]1O[C@H](CO)[C@@H](O)[C@H](O)[C@@H]1O)C1CN(C(=O)Cc2ccc(OCCCC3CCN(c4ncc(Cl)cn4)CC3)cc2F)C1` (racemic) [Example 31, 1-[2-[4-[3-[1-(5-chloropyrimidin-2-yl)-4-piperidyl]propoxy]-2-fluoro-phenyl]acetyl]-N-[2-[rac-(2S,3S,4S,5S,6R)-3,4,5-trihydroxy-6-(hydroxymethyl)tetrahydropyran-2-yl]oxyethyl]azetidine-3-carboxamide] came in with a maximal effect (Emax) of 100 to 130% and an EC50 of 100 to 1000 nM.

For `CCOc1cnc(N2CCC(CCCOc3ccc(CC(=O)N4CC[C@@H](CNCC(CO)(CO)CO)C4)c(F)c3)CC2)nc1` [Example 154, 2-[4-[3-[1-(5-ethoxypyrimidin-2-yl)-4-piperidyl]propoxy]-2-fluoro-phenyl]-1-[(3S)-3-[[[3-hydroxy-2,2-bis(hydroxymethyl)propyl]amino]methyl]pyrrolidin-1-yl]ethanone], on human GPR119 (hGPR119), the Emax was 100 to 130% and the EC50 is no more than 100 nM.

For the molecule `O=C(Cc1ccc(OCCC2CC(C3CCN(c4ncc(Cl)cn4)CC3)C2)cc1F)N1CC(CNC[C@H](O)[C@@H](O)[C@H](O)[C@H](O)CO)C1` (stereo partly drawn) [Example 123, 2-[4-[2-[3-[1-(5-chloropyrimidin-2-yl)-4-piperidyl]cyclobutyl]ethoxy]-2-fluoro-phenyl]-1-[3-[[[(2S,3R,4R,5R)-2,3,4,5,6-pentahydroxyhexyl]amino]methyl]azetidin-1-yl]ethanone], at human GPR119 (hGPR119), the Emax lay in the range of 100 to 130% and the EC50 was 100 to 1000 nM.

With `O=C(CC1CN(C(=O)Cc2ccc(OCCCC3CCN(c4ncc(Cl)cn4)CC3)cc2F)C1)NC[C@H](O)[C@@H](O)[C@H](O)[C@H](O)CO` (racemic) [Example 38, 2-[1-[2-[4-[3-[1-(5-chloropyrimidin-2-yl)-4-piperidyl]propoxy]-2-fluoro-phenyl]acetyl]azetidin-3-yl]-N-[rac-(2S,3R,4R,5R)-2,3,4,5,6-pentahydroxyhexyl]acetamide], in series [2], the concentration at 7 h was determined as 76 nM and the “Exposure unbound (plasma)” value was 0.2 nM. Further, on human GPR119 (hGPR119), the Emax is no less than 130% and the concentration for a half-maximal effect (EC50) was in the range of 100 to 1000 nM.

As to `O=C(NC[C@H](O)[C@@H](O)[C@H](O)[C@H](O)CO)[C@H]1CCN(C(=O)Cc2c(F)cc(OCCCC3CCN(c4ncc(Cl)cn4)CC3)cc2F)C1` [Example 128, (3S)-1-[2-[4-[3-[1-(5-chloropyrimidin-2-yl)-4-piperidyl]propoxy]-2,6-difluoro-phenyl]acetyl]-N-[(2S,3R,4R,5R)-2,3,4,5,6-pentahydroxyhexyl]pyrrolidine-3-carboxamide], at human GPR119 (hGPR119), the maximum response (Emax) is no less than 130% and the EC50 is no more than 100 nM.

At human GPR119 (hGPR119), `CCOc1cnc(N2CCC(CCCOc3cc(F)c(CC(=O)N4CCC(O)(CNCC(CO)(CO)CO)C4)c(F)c3)CC2)nc1` (centres unmarked) [Example 189, 2-[4-[3-[1-(5-ethoxypyrimidin-2-yl)-4-piperidyl]propoxy]-2,6-difluoro-phenyl]-1-[3-hydroxy-3-[[[3-hydroxy-2,2-bis(hydroxymethyl)propyl]amino]methyl]pyrrolidin-1-yl]ethanone] displayed an Emax of 100 to 130% and a half-maximal effective concentration (EC50) of no more than 100 nM.
